Like-named read-outs stand apart in the source and are kept apart here.
How the values were obtained:
[1] = tested on: hMPV-GFP virus; experiment: microbe, parasite or virus in culture; assay type: cell-based, human metapneumovirus
Protocol: GFP expressing rgHMPV #3 p3 was generated in Dr. Buchholz's lab (Biacchesi S. et al., J Virol. 2007 June; 81(11): 6057-6067) and propagated in VERO cells (ATCC Cat #CCL-81) with a Multiplicity of Infection (MOI) of 0.1. Virus was harvested 4 days after infection by collecting cultured material and was freeze-thaw cycled in liquid nitrogen twice. Working virus stocks were generated from thawing frozen samples in 37° C. water bath, which were centrifuged at 218 g for 15 min at 4° C. 1/10 of 10×SPG (Biological Industries 06-3061-01-5A) were added and then mixed. The supernatant was aliquoted, frozen in liquid nitrogen, and then transferred to a −80° C. freezer for storage. Virus titer was determined by performing titration test in 96-well plates and calculate approximate virus titer using GFP event/well data.
Compound plates were prepared by dispensing compounds dissolved in DMSO into wells of a 384 well Corning 3985 polystyrene flat clear bottom optical imaging microplate (202.5 nL/well) using an ECHO acoustic dispenser. Each compound was tested in 10-point serial 3-fold dilution (typical final concentrations: 40,300 nM-2 nM). […] Continuous culture of VERO cells was maintained in complete culture media (OptiMEM supplemented with 2 mM GlutaMAX™ and 100 U/ml Penicillin-Streptomycin). To set up the assay, VERO cells were trypsinized with 0.25% Trypsin-EDTA until cells were dislodged, then cells were re-suspended with 1 mL FBS. Cells were spun down at 300 g for 5 minutes and cells were washed twice with culture media and counted using default parameters on ViCell. Cells were then diluted to 100,000 cells/mL (5,000 cells/50 μL) in complete culture media+TrypLE Select (80 μL/mL). hMPV-GFP virus was added to cells at 125,000 pfu/mL (MOI=1.25) and were mixed by gentle inversion. 10 μL/well of 100% DMSO was dispensed to CellTiter-Glo (CTG) assay Max_E controls wells. Cells were dispensed at 50 μL/well using Bravo and 50 μL filtered tips into compound plates. Plates were covered with MicroClime lids and loaded with 7.5 mL of assay media to minimize evaporation. Plates were lightly shaken for 10 minutes at room temperature and then incubated at 37° C. and 5% CO2 for 48 hrs. Following incubation, distinct GFP-expressing cells were counted using an Acumen imaging system with appropriate settings. A same-well CTG assay was performed by adding 10 μL/well reconstituted CellTiter-Glo reagent (Promega G7573) and plates were read on PerkinElmer Envision according to manufacturer's instructions. Raw data were loaded and analyzed in ActivityBase. Antiviral IC50 and cytotoxicity CC50 values were determined using a 4 parameter logistic fit based on the Levenberg-Marquardt algorithm. Model: 205-4 Parameter Logistic. • References: Wen Z, Citron M, Bett A J, Espeseth A S, Vora K A, Zhang L, DiStefano D J. Development and application of a higher throughput RSV plaque assay by immunofluorescent imaging. J Virol Methods. 2019 January; 263:88-95. doi: 10.1016/j.jviromet.2018.10.022. Epub 2018 Oct. 28. PMD: 30381239. • Biacchesi S, Murphy B R, Collins P L, Buchholz U J. Frequent frameshift and point mutations in the SH gene of human metapneumovirus passaged in vitro. J Virol. 2007 June; 81(11):6057-67. doi: 10.1128/JVL.00128-07. Epub 2007 Mar. 21. PMID: 17376897; PMCID: MC 1900297. Assay Data

[2] = tested on: RSV-A2-GFP virus; experiment: microbe, parasite or virus in culture; assay type: cell-based, Human Respiratory Syncytial Virus
Protocol: To set up the assay, ARF vials were thawed in a 37° C. water bath and a control compound was resuspended in assay media DMEM (Dulbecco's Modified Eagle Medium) containing 2% FBS, 100 U/ml Penicillin-Streptomycin.
GFP sequence was derived from pJTI™ R4 Dest CMV N-EmGFP pA Vector (Invitrogen) and was cloned into the intergenic sequence between wild-type RSV-A2 P and M genes using standard recombineering techniques. Recombinant RSV-A2-GFP was propagated in Hep2 cells (human cells contain HeLa marker chromosomes and were derived via HeLa contamination, ATCC CCL-23) with a Multiplicity of Infection (MOI) of 0.1. Virus was harvested 3 days after infection by collecting all culture material and then freeze-thawing the mixture for 5 min. Working virus stocks were generated by thawing frozen viral cultures in 37° C. water bath, which were centrifuged at 218 g for 15 min at 4° C. 1/10 of 10×SPG (Biological Industries 06-3061-01-5A) were added and then mixed. The supernatant was aliquoted, frozen in liquid nitrogen, and then transferred to a −80° C. freezer for storage. Virus titer was determined by automated plaque assay in HEp-2 cells following methods described previously (Wen Z. et al.; 2019).
Calu-1 cells were purchased from ATCC (Cat #HTB-54) and were expanded in growth media (DMEM containing 10% FBS, 100 U/ml Penicillin-Streptomycin). To make ARF, cell culture media was removed and discarded and the cell layer was briefly rinsed with PBS to remove serum. 2.5 mL of TrypLE Express solution were added and cells incubated until dislodged, to which growth media was added and the cells were resuspended by gentle pipetting. Cells were counted for concentration and viability as determined by ViCell. Cells were centrifuged at RT, 300 g for 5 minutes to pellet cells. The supernatant was gently aspirated and the pellet was flicked to loosen cells. Cells were resuspended in an appropriate volume of freezing medium (DMEM containing 10% DMSO, 10% FBS, 100 U/ml Penicillin-Streptomycin) to achieve a concentration of 5×10^6 cells/mL. 1 mL aliquots of the cell suspension were transferred to freezing vials. The vials were put into an upright container in a −80° C. freezer overnight before transferring vials to liquid nitrogen for storage.
Assay ready freezedown (ARF, generation described separately) Calu-1 cells (ATCC HTB-54) were used. Compound plates were prepared by dispensing compounds dissolved in DMSO into the wells of a 384 well Corning® 3985 plate with an ECHO acoustic dispenser and compounds were tested in 10-point serial 3-fold dilution. […] To set up the assay, ARF vial(s) were thawed in a 37° C. water bath and were then resuspended into assay media (DMEM containing 2% FBS, 100 U/ml Penicillin-Streptomycin). Cells were counted using default parameters on ViCell and diluted to 20,000 cells/mL in assay media. RSV-A2-GFP virus was added to cells at 24,000 pfu/ml (MOI=1.2) and mixed by gentle inversion. 10 μL/well of 100% DMSO was dispensed as CellTiter-Glo (CTG) assay Max_E controls wells. The cells were dispensed at 50 μL/well using Bravo with 50 μL filtered tips into compound plates. Plates were covered with MicroClime lids, loaded with 7.5 mL of assay media to minimize evaporation, and were incubated at 37° C. and 5% CO2 for 96 hrs. Following incubation, distinct, GFP-expressing cells were counted using an Acumen imaging system with appropriate settings. A same-well CTG assay was performed by adding 10 μL/well reconstituted CellTiter-Glo reagent (Promega G7573) and plates were read on PerkinElmer Envision according to manufacturer's instructions. Raw data were loaded and analyzed in ActivityBase. Antiviral IC50 and cytotoxicity CC50 values were determined using a 4 parameter logistic fit based on the Levenberg-Marquardt algorithm. Model: 205-4 Parameter Logistic.

[3] = read-out: hMPV EC50, VERO cells infected with hMPV-GFP, 48 hrs, GFP-expressing cells counted
[4] = read-out: RSV EC50, Calu-1 cells infected with RSV-A2-GFP, 96 hrs, GFP-expressing cells counted
[5] = VERO cells infected with hMPV-GFP, 48 hrs, GFP-expressing cells counted, read-out: hMPV EC50
[6] = Calu-1 cells infected with RSV-A2-GFP, 96 hrs, GFP-expressing cells counted, read-out: RSV EC50
[7] = human metapneumovirus, Vero, 48 h, read-out: hMPV EC50, VERO cells infected with hMPV-GFP, 48 hrs, GFP-expressing cells counted
[8] = human respiratory syncytial virus, Calu-1, 96 h, read-out: RSV EC50, Calu-1 cells infected with RSV-A2-GFP, 96 hrs, GFP-expressing cells counted

SMILES	EC50 [1, 5]	EC50 [2, 6]	EC50 [1, 7]	EC50 [2, 8]	further results
Cn1nc(-c2ncccn2)cc1C(=O)N1C[C@H]2[C@H](Oc3cc(C(C)(C)N)cc(-c4ccc(C(F)(F)F)cc4)n3)[C@@]2(C)C1 (single isomer, unassigned; enantiomer 2) [Example 110B]					EC50 [1, 3]: > 100 nM; EC50 [2, 4]: < 10 nM
Cc1nn(-c2ncccn2)cc1C(=O)N1C[C@H]2[C@H](Oc3cc(C(C)(C)N)cc(-c4ccc(C(F)(F)F)cc4)n3)[C@@]2(C)C1 (single isomer, unassigned; enantiomer 2) [Example 111B]					EC50 [1, 3]: 10 to 100 nM; EC50 [2, 4]: < 10 nM
Cc1nc(-c2ncccn2)sc1C(=O)N1C[C@@H]2C(Oc3cc(C(C)(N)CO)cc(-c4ccc(F)cc4)n3)[C@@H]2C1 (single isomer, unassigned; enantiomer 2) [Example 113B]	> 100 nM	< 10 nM			
CCC(C)(N)c1cc(OC2[C@H]3CN(C(=O)c4cn(-c5ncccn5)nc4C)C[C@@H]23)nc(-c2ccc(F)cc2)c1 (single isomer, unassigned; enantiomer 2) [Example 116B]	> 100 nM	< 10 nM			
Cc1nc(-c2ncccn2)sc1C(=O)N1C[C@@H]2[C@H](C1)[C@H]2Nc1cc(C(C)(C)N)cc(-c2ccc(F)cc2)n1 [Example 7, ((1R,5S,6s)-6-((4-(2-aminopropan-2-yl)-6-(4-fluorophenyl)pyridin-2-yl)amino)-3-azabicyclo[3.1.0]hexan-3-yl)(4-methyl-2-(pyrimidin-2-yl)thiazol-5-yl)methanone]			> 100 nM	< 10 nM	
Cc1nc(-c2ncccn2)sc1C(=O)N1C[C@@H]2[C@H](C1)[C@H]2Oc1cc(C(C)(C)N)cc(-c2ccc(F)cc2)n1 [Example 8, ((1R,5S,6s)-6-((4-(2-aminopropan-2-yl)-6-(4-fluorophenyl)pyridin-2-yl)oxy)-3-azabicyclo[3.1.0]hexan-3-yl)(4-methyl-2-(pyrimidin-2-yl)thiazol-5-yl)methanone]			10 to 100 nM	< 10 nM	
CC(C)(N)c1cc(O[C@H]2[C@@H]3CN(C(=O)c4cnc(-c5ncccn5)s4)C[C@@H]32)nc(-c2ccc(F)cc2)c1 [Example 9, ((1R,5S,6s)-6-((4-(2-aminopropan-2-yl)-6-(4-fluorophenyl)pyridin-2-yl)oxy)-3-azabicyclo[3.1.0]hexan-3-yl)(2-(pyrimidin-2-yl)thiazol-5-yl)methanone]			> 100 nM	< 10 nM	
CCc1nc(-c2ncccn2)sc1C(=O)N1C[C@@H]2[C@H](C1)[C@H]2Oc1cc(C(C)(C)N)cc(-c2ccc(F)cc2)n1 [Example 10, ((1R,5S,6s)-6-((4-(2-aminopropan-2-yl)-6-(4-fluorophenyl)pyridin-2-yl)oxy)-3-azabicyclo[3.1.0]hexan-3-yl)(4-ethyl-2-(pyrimidin-2-yl)thiazol-5-yl)methanone]	10 to 100 nM	< 10 nM			
CC(C)(N)c1cc(O[C@H]2[C@@H]3CN(C(=O)c4sc(-c5ncccn5)nc4C(F)(F)F)C[C@@H]32)nc(-c2ccc(F)cc2)c1 [Example 11, ((1R,5S,6s)-6-((4-(2-aminopropan-2-yl)-6-(4-fluorophenyl)pyridin-2-yl)oxy)-3-azabicyclo[3.1.0]hexan-3-yl)(2-(pyrimidin-2-yl)-4-(trifluoromethyl)thiazol-5-yl)methanone]	> 100 nM	< 10 nM			
Cc1nc(-c2ccccn2)sc1C(=O)N1C[C@@H]2[C@H](C1)[C@H]2Oc1cc(C(C)(C)N)cc(-c2ccc(F)cc2)n1 [Example 12, ((1R,5S,6s)-6-((4-(2-aminopropan-2-yl)-6-(4-fluorophenyl)pyridin-2-yl)oxy)-3-azabicyclo[3.1.0]hexan-3-yl)(4-methyl-2-(pyridin-2-yl)thiazol-5-yl)methanone]	> 100 nM	< 10 nM			
Cc1nc(-c2ncccn2)sc1C(=O)N1C[C@@H]2[C@H](C1)[C@H]2Oc1cc(C(C)(C)N)cc(-c2cc(F)c(F)c(F)c2)n1 [Example 13, ((1R,5S,6s)-6-((4-(2-aminopropan-2-yl)-6-(3,4,5-trifluorophenyl)pyridin-2-yl)oxy)-3-azabicyclo[3.1.0]hexan-3-yl)(4-methyl-2-(pyrimidin-2-yl)thiazol-5-yl)methanone]			10 to 100 nM	< 10 nM	
Cc1nc(-c2ncccn2)sc1C(=O)N1C[C@@H]2[C@H](C1)[C@H]2Oc1cc(C(C)(C)N)cc(-c2ccc(F)c(F)c2F)n1 [Example 14, ((1R,5S,6s)-6-((4-(2-aminopropan-2-yl)-6-(2,3,4-trifluorophenyl)pyridin-2-yl)oxy)-3-azabicyclo[3.1.0]hexan-3-yl)(4-methyl-2-(pyrimidin-2-yl)thiazol-5-yl)methanone]	10 to 100 nM	< 10 nM			
